Test results as given in PubChem BioAssay (NCI).
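Interpolation was linear, between the two tested concentrations surrounding the appropriate level; five concentrations were tested over 48 hours in 96-well plates. Abbreviation: GI50, concentration required for 50% inhibition of growth. The concentration for full growth arrest is given as TGI.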

How the values were obtained:
Assay in all cases: inhibition of tumour cell growth, NCI panel, 48 h
[1] = test system: UACC-257 melanoma
[2] = test system: 786-0 renal
[3] = test system: PC-3 prostate
[4] = test system: HCC-2998 colon
[5] = test system: OVCAR-5 ovarian
[6] = test system: SW-620 colon
[7] = test system: SNB-19 CNS
[8] = test system: SF-539 CNS
[9] = test system: NCI-H460 lung
[10] = test system: CAKI-1 renal
[11] = test system: BT-549 breast
[12] = test system: HT29 colon
[13] = test system: A498 renal
[14] = test system: RXF 393 renal
[15] = test system: NCI-H226 lung
[16] = test system: UO-31 renal
[17] = test system: CCRF-CEM leukemia
[18] = test system: K-562 leukemia
[19] = test system: EKVX NSCLC
[20] = test system: COLO 205 colon
[21] = test system: M14 melanoma
[22] = test system: SK-MEL-5 melanoma
[23] = test system: UACC-62 melanoma
[24] = test system: ACHN renal
[25] = test system: SK-MEL-28 melanoma
[26] = test system: HL-60(TB) leukemia
[27] = test system: SF-268 CNS
[28] = test system: SK-MEL-2 melanoma
[29] = test system: OVCAR-8 ovarian
[30] = test system: IGROV1 ovarian
[31] = test system: MDA-MB-435
[32] = test system: HS 578T breast
[33] = test system: HCT-116 colon
[34] = test system: SF-295 CNS
[35] = test system: SK-OV-3 ovarian
[36] = test system: SNB-75 CNS
[37] = test system: NCI-H522 lung
[38] = test system: TK-10 renal
[39] = test system: KM12 colon
[40] = test system: SN12C renal
[41] = test system: LOX IMVI melanoma
[42] = test system: MALME-3M melanoma
[43] = test system: U251 CNS
[44] = test system: MCF7 breast
[45] = test system: DU-145 prostate
[46] = test system: T-47D breast
[47] = test system: MDA-MB-231 breast
[48] = test system: NCI/ADR-RES ovarian
[49] = test system: HOP-92 NSCLC
[50] = test system: NCI-H23 lung
[51] = test system: A549 NSCLC
[52] = test system: MOLT-4 leukemia
[53] = test system: RPMI-8226 leukemia
[54] = test system: SR leukemia
[55] = test system: HOP-62 NSCLC
[56] = test system: HCT-15 colon
[57] = test system: OVCAR-4 ovarian

CS(=O)(=O)Nc1cc(-c2ccc3ncc(C#N)c(NCc4ccccc4F)c3c2)cnc1Cl
GI50 [1]: 244 nM
TGI [1]: 4.94 µM
GI50 [2]: 308 nM
TGI [2]: 9.52 µM
GI50 [3]: 231 nM
TGI [3]: 10 µM
GI50 [4]: 339 nM
TGI [4]: 8.32 µM
GI50 [5]: 386 nM
TGI [5]: 9.74 µM
GI50 [6]: 317 nM
TGI [6]: 10.8 µM
GI50 [7]: 293 nM
TGI [7]: 11.5 µM
GI50 [8]: 190 nM
TGI [8]: 1840 nM
GI50 [9]: 374 nM
TGI [9]: 11.5 µM
GI50 [10]: 131 nM
TGI [10]: 1420 nM
GI50 [11]: 60.9 nM
TGI [11]: 623 nM
GI50 [12]: 324 nM
TGI [12]: 5.49 µM
GI50 [13]: 89.6 nM
TGI [13]: 461 nM
GI50 [14]: 93.4 nM
TGI [14]: 925 nM
GI50 [15]: 358 nM
TGI [15]: 18.2 µM
GI50 [16]: 154 nM
GI50 [17]: 153 nM
TGI [17]: 45.8 µM
GI50 [18]: 260 nM
TGI [18]: > 100 µM
GI50 [19]: 319 nM
TGI [19]: 5.48 µM
GI50 [20]: 271 nM
TGI [20]: 1200 nM
GI50 [21]: 243 nM
TGI [21]: 7.01 µM
GI50 [22]: 163 nM
TGI [22]: 336 nM
GI50 [23]: 118 nM
TGI [23]: 1270 nM
GI50 [24]: 436 nM
TGI [24]: > 52.5 µM
GI50 [25]: 176 nM
TGI [25]: 4.77 µM
GI50 [26]: 253 nM
TGI [26]: 6.39 µM
GI50 [27]: 163 nM
TGI [27]: 3.67 µM
GI50 [28]: 91.9 nM
TGI [28]: 320 nM
GI50 [29]: 328 nM
TGI [29]: 12.2 µM
GI50 [30]: 108 nM
TGI [30]: 876 nM
GI50 [31]: 251 nM
TGI [31]: 10.6 µM
GI50 [32]: 49.8 nM
TGI [32]: 445 nM
GI50 [33]: 248 nM
TGI [33]: 1500 nM
GI50 [34]: 197 nM
TGI [34]: 1920 nM
GI50 [35]: 232 nM
TGI [35]: 1400 nM
GI50 [36]: 26.7 nM
TGI [36]: 370 nM
GI50 [37]: 335 nM
TGI [37]: 8.14 µM
GI50 [38]: 100 nM
TGI [38]: 976 nM
GI50 [39]: 280 nM
TGI [39]: 3.86 µM
GI50 [40]: 235 nM
TGI [40]: > 64 µM
GI50 [41]: 191 nM
TGI [41]: 1010 nM
GI50 [42]: 71.7 nM
TGI [42]: 475 nM
GI50 [43]: 155 nM
TGI [43]: 4.27 µM
GI50 [44]: 106 nM
TGI [44]: 11.5 µM
GI50 [45]: 302 nM
TGI [45]: 12.1 µM
GI50 [46]: 108 nM
TGI [46]: 5.84 µM
GI50 [47]: 343 nM
TGI [47]: 3.8 µM
GI50 [48]: 1450 nM
TGI [48]: 29.5 µM
GI50 [49]: 23.8 nM
TGI [49]: 286 nM
GI50 [50]: 271 nM
TGI [50]: 12.3 µM
GI50 [51]: 442 nM
TGI [51]: 4 µM
GI50 [52]: 190 nM
TGI [52]: 2540 nM
GI50 [53]: 189 nM
TGI [53]: 1290 nM
GI50 [54]: 123 nM
TGI [54]: 3.2 µM
GI50 [55]: 220 nM
TGI [55]: 4.71 µM
GI50 [56]: 264 nM
TGI [56]: 11.7 µM
GI50 [57]: 262 nM
TGI [57]: 6.05 µM
